Source: patent publication US8367084B2, “Oily base for a cosmetic and cosmetic comprising the same” (Kokyu Alcohol Kogyo Co., Ltd., priority 2009, dated 2013)

Tests used:
Format in all cases: physicochemical
[1] = Compatibility of the ester compound with oil agents; set-up: key to Compatibility: G: the compound exhibits the compatibility with both the hydrocarbon oil and silicone oil; M: the compound exhibits the compatibility with either of the two; B: the compound exhibits the compatibility with neither of the two; details: for Compatibility: 90% by mass ester compound in 10% by mass oil agent, appearance after one week at 25 degrees C.; for compatibility with the oil agents (in words): ester compound
Procedure: Compatibility: The oil agents used were as follows:
Hydrocarbon oil: Squalane (OLIVE SQUALANE from Kokyu Alcohol Kogyo Co., Ltd.)
Silicone oil: Cyclomethicone (DOWCORNING TORAY SH 245 FLUID, trademark, from Dow Corning Toray Co., Ltd.)
In 10% by mass of each oil agent indicated above were dissolved 90% by mass of the ester compound obtained from Preparation Examples and Comparative Preparation Examples in a hot water bath at a temperature of 80 to 90 degrees C. for 60 minutes under stirring. Next, the mixture obtained was cooled to 50 degrees C. under stirring and then placed in a temperature-controlled room at 25 degrees C. The appearance after one week was evaluated visually. The indication of the evaluation results is as follows.

[2] = Hydroxyl value (Cosmetics Raw Material Standard 24); details: ester compound; unit assumed
From the text: Hydroxyl value: determined in accordance with “Cosmetics Raw Material Standard 24, Method for the Determination of a Hydroxyl Value”.

[3] = Acid value (Cosmetics Raw Material Standard 18); details: ester compound
From the text: Acid value: determined in accordance with “Cosmetics Raw Material Standard 18, Method for the Determination of an Acid Value”.

[4] = Viscosity by Brookfield Viscometer DV-II+; details: Spindle No. 2, 12 rpm
Procedure: Viscosity: determined by Brookfield Viscometer DV-II+ (Spindle No. 2, 12 rpm, 25 degrees C.).

Row | Compound | Compatibility [1] | compatibility with the oil agents (in words) [1] | Hydroxyl value [2] [mg KOH/g] | Acid value [3] | Viscosity in mPa · s at 25° C. [4] [mPa · s]
1 | CCCCC(CC)C(=O)OCC(COC(=O)C(CC)CCCC)(COC(=O)C(CC)CCCC)COC(=O)C(CC)CCCC (stereo not shown) [Com. Prep. Ex. 2, pentaerythrityl tetraethylhexanoate] | M | not good | 1.25 | 0.02 | 109
2 | pentaerythrityl tetraisostearate [Com. Prep. Ex. 3] | M | not good | 0.59 | 0.38 | 290
